Consider 27 compounds from the SangsterLogP compilation.

This data set in a line: method code SF-AS, from DOI: 10.1016/0021-9673(94)85294-4.
For the compound `CCOC(=O)c1ccc[nH]1`, the log partition coefficient (logP) (in general, the decadic logarithm of the partition coefficient of the neutral form, usually between octanol and water) came out at 1.73. The same measure for `CCNC(=O)c1ccccc1`: 1.28; for `CCOC(=O)c1cc2ccccc2o1`: 3.05; for `CCCNC(=O)c1ccccc1`: 1.72. Then `CNC(=O)c1cc2ccccc2o1`, with 1.85; and `NC(=O)c1cc2ccccc2o1`, with 1.54; and `CCCNC(=O)c1cccn1C`, with 1.63. The same measure for `COC(=O)c1cc2ccccc2[nH]1`: 2.78; for `CNC(=O)c1c[nH]c2ccccc12`: 1.25; for `CNC(=O)c1ccc[nH]1`: 0.42. For `COC(=O)c1cccn1C`, the lipophilicity (logP) amounted to 1.8. `CCCNC(=O)c1ccoc1` came in with a logP of 1.2. With `Cn1cccc1C(N)=O`, the lipophilicity (logP) came out at 0.45.

For the compound `NC(=O)c1cc2ccccc2[nH]1`, the log partition coefficient (logP) is 1.61.

`CCCNC(=O)c1cc2ccccc2[nH]1` showed a lipophilicity (logP) of 2.8.

With `CCNC(=O)c1cccn1C`, the logP is 1.09. The same measure for `CCNC(=O)c1cc2ccccc2o1`: 2.22; for `NC(=O)c1ccc[nH]1`: 0.09. The same measure for `CCNC(=O)c1cc2ccccc2[nH]1`: 2.32. The same measure for `CCCOC(=O)c1ccoc1`: 2.36; for `CCCNC(=O)c1ccco1`: 1.1.

The compound `CCCNC(=O)c1cc2ccccc2o1` registered a logP of 2.65. `CCNC(=O)c1c[nH]c2ccccc12`: the logP came out at 1.62. Then `CCNC(=O)c1ccc[nH]1`, with 0.8.

Regarding `CNC(=O)c1cccn1C`, the logP is 0.71. The same measure for `CNC(=O)c1cc2ccccc2[nH]1`: 1.9; for `CCCNC(=O)c1ccc[nH]1`: 1.25.
